Measured values as given in the supplement of paper PMC10627819.

Key:
S. aureus DSM 20231 = test: Bliss interaction score (quartile over a dose matrix) (fitness difference); higher = more antagonism (negative = synergy)
Procedure, shortened: (§1)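 At entry into stationary phase, OD595 was recorded and divided by the robust mean of the no-drug wells on that plate, with any value above 1 set to 1. This gives the fitness measure used throughout. Single-drug fitness was inferred from combination data, and the Bliss score, observed minus product-expected fitness, is shown as quartiles across technical, biological and donor/recipient replicates.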

S. aureus Newman = test: as above
Procedure, shortened: as §1

B. subtilis 168 [1] = test: as above
Procedure, shortened: as §1

S. pneumoniae D39V [2] = test: as above
Procedure, shortened: as §1

S. pneumoniae D39V [3] = test: fitness (endpoint OD595 vs no drug) (fraction); higher = more growth
Procedure, shortened: (§2)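 At 37 °C, bacteria in TSB, LB Lennox or CY were grown in 384-well plates from a starting OD595 of 0.01. OD595 was measured every 30 min for 14 h, with the first reading used as background. Fitness is the optical density at the switch to stationary phase as a fraction of the robust mean of no-drug control wells, capped at 1.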

B. subtilis 168 [4] = test: as above
Procedure, shortened: as §2
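For Bliss interaction score (quartile over a dose matrix) in this document: first quartile when negative (synergy) and third quartile when positive (antagonism).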

CO[C@H]1/C=C/O[C@@]2(C)Oc3c(C)c(O)c4c(O)c(c(/C=N/N5CCN(C)CC5)c(O)c4c3C2=O)NC(=O)/C(C)=C\C=C\[C@H](C)[C@H](O)[C@@H](C)[C@@H](O)[C@@H](C)[C@H](OC(C)=O)[C@@H]1C [Rifampicin] + CN[C@@H]1[C@H](O)[C@H](NC)[C@H]2O[C@@]3(O)C(=O)C[C@@H](C)O[C@H]3O[C@@H]2[C@H]1O [Spectinomycin]
Settings | Bliss interaction score
B. subtilis 168 [1] | -0.0584
S. aureus DSM 20231 | -0.0309
S. aureus Newman | 0.0508
S. pneumoniae D39V [2] | -0.153

fitness, S. pneumoniae D39V [3], one replicate
Settings | partner 4 µg/mL | partner 8 µg/mL | partner 16 µg/mL
first compound 0.025 µg/mL | 0.848 | 0.716 | 0.282
first compound 0.2 µg/mL | – | – | 0

fitness, S. pneumoniae D39V [3]
Settings | first compound 0.05 µg/mL | first compound 0.1 µg/mL | first compound 0.2 µg/mL
partner 4 µg/mL | 0.497 | 0.297 | 0.0634
partner 8 µg/mL | – | 0.202 | 0.069
partner 16 µg/mL | 0.23 | 0.204 | –

CO[C@H]1/C=C/O[C@@]2(C)Oc3c(C)c(O)c4c(O)c(c(/C=N/N5CCN(C)CC5)c(O)c4c3C2=O)NC(=O)/C(C)=C\C=C\[C@H](C)[C@H](O)[C@@H](C)[C@@H](O)[C@@H](C)[C@H](OC(C)=O)[C@@H]1C [Rifampicin] + CN[C@@H]1[C@H](O[C@H]2[C@H](O[C@H]3[C@H](O)[C@@H](O)[C@H](N=C(N)N)[C@@H](O)[C@@H]3N=C(N)N)O[C@@H](C)[C@]2(O)C=O)O[C@@H](CO)[C@H](O)[C@H]1O [Streptomycin]
Settings | Bliss interaction score
B. subtilis 168 [1] | 0.184
S. aureus DSM 20231 | -0.0315
S. aureus Newman | -0.0179
S. pneumoniae D39V [2] | -0.121

S. pneumoniae D39V [3], one replicate
Settings | fitness
first compound 0.025 µg/mL, partner 2 µg/mL | 0.804
first compound 0.025 µg/mL, partner 4 µg/mL | 0.823
first compound 0.025 µg/mL, partner 8 µg/mL | 0.725
first compound 0.05 µg/mL, partner 16 µg/mL | 0.272
first compound 0.1 µg/mL, partner 16 µg/mL | 0.215
first compound 0.2 µg/mL, partner 16 µg/mL | 0.137

fitness, S. pneumoniae D39V [3]
Settings | partner 2 µg/mL | partner 4 µg/mL | partner 8 µg/mL
first compound 0.1 µg/mL | – | 0.292 | 0.304
first compound 0.2 µg/mL | 0.0493 | 0.0964 | 0.185

CO[C@H]1/C=C/O[C@@]2(C)Oc3c(C)c(O)c4c(O)c(c(/C=N/N5CCN(C)CC5)c(O)c4c3C2=O)NC(=O)/C(C)=C\C=C\[C@H](C)[C@H](O)[C@@H](C)[C@@H](O)[C@@H](C)[C@H](OC(C)=O)[C@@H]1C [Rifampicin] + CN(C)c1cc(NC(=O)CNC(C)(C)C)c(O)c2c1C[C@H]1C[C@H]3[C@H](N(C)C)C(O)=C(C(N)=O)C(=O)[C@@]3(O)C(O)=C1C2=O [Tigecycline]
Settings | Bliss interaction score
B. subtilis 168 [1] | 0.0457
S. aureus DSM 20231 | 0.026
S. aureus Newman | -0.0189
S. pneumoniae D39V [2] | -0.0785

S. pneumoniae D39V [3], first compound 0.025 µg/mL, one replicate
Settings | fitness
partner 0.65 µg/mL | 0.86
partner 1.3 µg/mL | 0.808
partner 2.6 µg/mL | 0.839

S. pneumoniae D39V [3], first compound 0.2 µg/mL
Settings | fitness
partner 0.65 µg/mL | 0.197
partner 1.3 µg/mL | 0.159
partner 2.6 µg/mL | 0.196

CO[C@H]1/C=C/O[C@@]2(C)Oc3c(C)c(O)c4c(O)c(c(/C=N/N5CCN(C)CC5)c(O)c4c3C2=O)NC(=O)/C(C)=C\C=C\[C@H](C)[C@H](O)[C@@H](C)[C@@H](O)[C@@H](C)[C@H](OC(C)=O)[C@@H]1C [Rifampicin] + CN[C@H](CC(C)C)C(=O)N[C@H]1C(=O)N[C@@H](CC(N)=O)C(=O)N[C@H]2C(=O)N[C@H]3C(=O)N[C@H](C(=O)N[C@H](C(=O)O)c4cc(O)cc(O)c4-c4cc3ccc4O)[C@H](O)c3ccc(c(Cl)c3)Oc3cc2cc(c3O[C@@H]2O[C@H](CO)[C@@H](O)[C@H](O)[C@H]2O[C@H]2C[C@](C)(N)[C@H](O)[C@H](C)O2)Oc2ccc(cc2Cl)[C@H]1O [Vancomycin]
Settings | Bliss interaction score
B. subtilis 168 [1] | 0.029
S. aureus DSM 20231 | -0.0199
S. aureus Newman | 0.0383
S. pneumoniae D39V [2] | 0.135

fitness, S. pneumoniae D39V [3], one replicate
Settings | partner 0.125 µg/mL | partner 0.25 µg/mL | partner 0.5 µg/mL
first compound 0.025 µg/mL | 0.903 | 0.823 | 0.267
first compound 0.2 µg/mL | – | 0 | 0

fitness, S. pneumoniae D39V [3]
Settings | partner 0.03125 µg/mL | partner 0.0625 µg/mL | partner 0.125 µg/mL | partner 0.25 µg/mL | partner 0.5 µg/mL
first compound 0.05 µg/mL | 0.886 | 0.846 | – | 0.707 | 0.299
first compound 0.1 µg/mL | 0.537 | 0.476 | – | – | –
first compound 0.2 µg/mL | 0.162 | 0.161 | 0.0937 | – | –

CC(=O)NC[C@H]1CN(c2ccc(N3CCOCC3)c(F)c2)C(=O)O1 [Linezolid] + CN[C@@H]1[C@H](O[C@H]2[C@H](O[C@H]3[C@H](O)[C@@H](O)[C@H](N=C(N)N)[C@@H](O)[C@@H]3N=C(N)N)O[C@@H](C)[C@]2(O)C=O)O[C@@H](CO)[C@H](O)[C@H]1O [Streptomycin]
Settings | Bliss interaction score
B. subtilis 168 [1] | 0.0492
S. aureus DSM 20231 | -0.0536
S. aureus Newman | -0.0504
S. pneumoniae D39V [2] | -0.112

fitness, one replicate
Settings | partner 2 µg/mL | partner 4 µg/mL | partner 8 µg/mL | partner 16 µg/mL
B. subtilis 168 [4], first compound 0.0625 µg/mL | 0.938 | 0.556 | 0.0308 | –
S. pneumoniae D39V [3], first compound 0.2 µg/mL | 0.826 | – | – | 0.584
S. pneumoniae D39V [3], first compound 0.4 µg/mL | 0.659 | – | – | 0.41
S. pneumoniae D39V [3], first compound 0.8 µg/mL | 0.292 | – | – | 0.163

fitness
Settings | partner 2 µg/mL | partner 4 µg/mL | partner 8 µg/mL
B. subtilis 168 [4], first compound 0.125 µg/mL | 0.543 | 0.454 | 0.0968
B. subtilis 168 [4], first compound 0.25 µg/mL | 0.142 | 0.0931 | 0.0559
B. subtilis 168 [4], first compound 0.5 µg/mL | 0.0384 | 0.0468 | 0.0218
S. pneumoniae D39V [3], first compound 0.105 µg/mL | 0.763 | 0.752 | 0.803
S. pneumoniae D39V [3], first compound 0.2 µg/mL | – | 0.781 | 0.684
S. pneumoniae D39V [3], first compound 0.21 µg/mL | 0.655 | 0.683 | 0.719
S. pneumoniae D39V [3], first compound 0.4 µg/mL | – | 0.625 | 0.56
S. pneumoniae D39V [3], first compound 0.42 µg/mL | 0.376 | 0.337 | 0.307
S. pneumoniae D39V [3], first compound 0.8 µg/mL | – | 0.283 | 0.233

CC(=O)NC[C@H]1CN(c2ccc(N3CCOCC3)c(F)c2)C(=O)O1 [Linezolid] + O=C1CN(/N=C/c2ccc([N+](=O)[O-])o2)C(=O)N1 [Nitrofurantoin]
Settings | Bliss interaction score
B. subtilis 168 [1] | -0.141
S. aureus DSM 20231 | -0.0317
S. aureus Newman | -0.0829
S. pneumoniae D39V [2] | -0.147

fitness, S. pneumoniae D39V [3]
Settings | first compound 0.105 µg/mL | first compound 0.2 µg/mL | first compound 0.21 µg/mL | first compound 0.4 µg/mL | first compound 0.42 µg/mL | first compound 0.8 µg/mL
partner 1.285 µg/mL | – | 0.79 | – | 0.695 | – | 0.291
partner 2 µg/mL | 0.784 | – | 0.688 | – | 0.522 | –
partner 2.57 µg/mL | – | 0.791 | – | 0.683 | – | 0.259
partner 4 µg/mL | 0.795 | – | 0.705 | – | 0.488 | –
partner 8 µg/mL | 0.618 | – | 0.346 | – | 0.151 | –

S. pneumoniae D39V [3], partner 5.14 µg/mL, one replicate
Settings | fitness
first compound 0.2 µg/mL | 0.735
first compound 0.4 µg/mL | 0.534
first compound 0.8 µg/mL | 0.239

CC(=O)NC[C@H]1CN(c2ccc(N3CCOCC3)c(F)c2)C(=O)O1 [Linezolid] + CO[C@H]1/C=C/O[C@@]2(C)Oc3c(C)c(O)c4c(O)c(c(/C=N/N5CCN(C)CC5)c(O)c4c3C2=O)NC(=O)/C(C)=C\C=C\[C@H](C)[C@H](O)[C@@H](C)[C@@H](O)[C@@H](C)[C@H](OC(C)=O)[C@@H]1C [Rifampicin]
Settings | Bliss interaction score
B. subtilis 168 [1] | -0.0404
S. aureus DSM 20231 | -0.0505
S. aureus Newman | -0.0225
S. pneumoniae D39V [2] | -0.0681

fitness, S. pneumoniae D39V [3]
Settings | first compound 0.105 µg/mL | first compound 0.2 µg/mL | first compound 0.21 µg/mL | first compound 0.42 µg/mL | first compound 0.8 µg/mL
partner 0.05 µg/mL | – | 0.69 | 0.182 | 0.171 | 0.348
partner 0.1 µg/mL | 0.17 | – | 0.135 | 0.103 | 0.216
partner 0.2 µg/mL | 0.127 | – | 0.0997 | 0.113 | –

fitness, S. pneumoniae D39V [3], one replicate
Settings | first compound 0.2 µg/mL | first compound 0.4 µg/mL | first compound 0.8 µg/mL
partner 0.025 µg/mL | 0.809 | 0.685 | 0.298
partner 0.2 µg/mL | 0 | 0 | 0

CO[C@H]1/C=C/O[C@@]2(C)Oc3c(C)c(O)c4c(O)c(c(/C=N/N5CCN(C)CC5)c(O)c4c3C2=O)NC(=O)/C(C)=C\C=C\[C@H](C)[C@H](O)[C@@H](C)[C@@H](O)[C@@H](C)[C@H](OC(C)=O)[C@@H]1C [Rifampicin] + Cn1nnc(-c2ccc(-c3ccc(N4C[C@H](CO)OC4=O)cc3F)cn2)n1 [Tedizolid]
Settings | Bliss interaction score
B. subtilis 168 [1] | -0.0782
S. aureus DSM 20231 | 0.0203
S. aureus Newman | -0.0238
S. pneumoniae D39V [2] | 0.133

fitness, S. pneumoniae D39V [3], one replicate
Settings | partner 0.125 µg/mL | partner 0.25 µg/mL | partner 0.5 µg/mL
first compound 0.025 µg/mL | 0.832 | 0.726 | 0.254
first compound 0.2 µg/mL | – | 0 | 0

fitness, S. pneumoniae D39V [3]
Settings | partner 0.03125 µg/mL | partner 0.0625 µg/mL | partner 0.125 µg/mL | partner 0.25 µg/mL | partner 0.5 µg/mL
first compound 0.05 µg/mL | 0.98 | 0.97 | 0.907 | 0.591 | 0.21
first compound 0.1 µg/mL | 0.743 | 0.79 | – | 0.343 | 0.181
first compound 0.2 µg/mL | 0.197 | 0.233 | 0.122 | – | –

CO[C@H]1/C=C/O[C@@]2(C)Oc3c(C)c(O)c4c(O)c(c(/C=N/N5CCN(C)CC5)c(O)c4c3C2=O)NC(=O)/C(C)=C\C=C\[C@H](C)[C@H](O)[C@@H](C)[C@@H](O)[C@@H](C)[C@H](OC(C)=O)[C@@H]1C [Rifampicin] + CN(N=O)C(=O)N[C@@H](C=O)[C@@H](O)[C@H](O)[C@H](O)CO [Streptozotocin]
Settings | Bliss interaction score
B. subtilis 168 [1] | -0.0644
S. aureus DSM 20231 | 0.034
S. aureus Newman | -0.0244
S. pneumoniae D39V [2] | -0.0476

S. pneumoniae D39V [3], first compound 0.025 µg/mL, one replicate
Settings | fitness
partner 1.2 µg/mL | 0.825
partner 2.4 µg/mL | 0.838
partner 4.8 µg/mL | 0.786

fitness, S. pneumoniae D39V [3]
Settings | partner 1.2 µg/mL | partner 2.4 µg/mL | partner 4.8 µg/mL
first compound 0.05 µg/mL | 0.831 | 0.879 | 0.766
first compound 0.2 µg/mL | 0.0914 | 0.108 | 0
